According to ChEMBL document CHEMBL1147074, “Reevaluation of telomerase inhibition by quadruplex ligands and their mechanisms of action” (Proc Natl Acad Sci U S A, 2007):
Activity calls are given as the source filed them. The calls are words filed in the database; no cut-off is given here.

Key:
[1] = target: T1, Telomerase reverse transcriptase (Homo sapiens, UniProt O14746); experiment: Inhibition of human telomerase expressed in HEK293T cells treated before telomerase elongation by telomeric repeat amplification protocol assay; type: cell-based; details: hek-293t
[2] = target: T1, Telomerase reverse transcriptase; experiment: Decrease in telomerase processivity assessed as decrease in telomerase elongation in presence of Telo3R primer by primer extension assay
[3] = target: T1, Telomerase reverse transcriptase; experiment: Inhibition of human telomerase expressed in HEK293T cells in presence of primer (T2AG3)3 by primer extension assay; type: cell-based; details: hek-293t
[4] = target: T1, Telomerase reverse transcriptase; experiment: Inhibition of human telomerase expressed in HEK293T cells in presence of primer TS by primer extension assay; type: cell-based; details: hek-293t
[5] = target: T1, Telomerase reverse transcriptase; experiment: Inhibition of human telomerase expressed in HEK293T cells in presence of primer (T2AG3)4 by primer extension assay; type: cell-based; details: hek-293t

T1 sequence (O14746 whole entry): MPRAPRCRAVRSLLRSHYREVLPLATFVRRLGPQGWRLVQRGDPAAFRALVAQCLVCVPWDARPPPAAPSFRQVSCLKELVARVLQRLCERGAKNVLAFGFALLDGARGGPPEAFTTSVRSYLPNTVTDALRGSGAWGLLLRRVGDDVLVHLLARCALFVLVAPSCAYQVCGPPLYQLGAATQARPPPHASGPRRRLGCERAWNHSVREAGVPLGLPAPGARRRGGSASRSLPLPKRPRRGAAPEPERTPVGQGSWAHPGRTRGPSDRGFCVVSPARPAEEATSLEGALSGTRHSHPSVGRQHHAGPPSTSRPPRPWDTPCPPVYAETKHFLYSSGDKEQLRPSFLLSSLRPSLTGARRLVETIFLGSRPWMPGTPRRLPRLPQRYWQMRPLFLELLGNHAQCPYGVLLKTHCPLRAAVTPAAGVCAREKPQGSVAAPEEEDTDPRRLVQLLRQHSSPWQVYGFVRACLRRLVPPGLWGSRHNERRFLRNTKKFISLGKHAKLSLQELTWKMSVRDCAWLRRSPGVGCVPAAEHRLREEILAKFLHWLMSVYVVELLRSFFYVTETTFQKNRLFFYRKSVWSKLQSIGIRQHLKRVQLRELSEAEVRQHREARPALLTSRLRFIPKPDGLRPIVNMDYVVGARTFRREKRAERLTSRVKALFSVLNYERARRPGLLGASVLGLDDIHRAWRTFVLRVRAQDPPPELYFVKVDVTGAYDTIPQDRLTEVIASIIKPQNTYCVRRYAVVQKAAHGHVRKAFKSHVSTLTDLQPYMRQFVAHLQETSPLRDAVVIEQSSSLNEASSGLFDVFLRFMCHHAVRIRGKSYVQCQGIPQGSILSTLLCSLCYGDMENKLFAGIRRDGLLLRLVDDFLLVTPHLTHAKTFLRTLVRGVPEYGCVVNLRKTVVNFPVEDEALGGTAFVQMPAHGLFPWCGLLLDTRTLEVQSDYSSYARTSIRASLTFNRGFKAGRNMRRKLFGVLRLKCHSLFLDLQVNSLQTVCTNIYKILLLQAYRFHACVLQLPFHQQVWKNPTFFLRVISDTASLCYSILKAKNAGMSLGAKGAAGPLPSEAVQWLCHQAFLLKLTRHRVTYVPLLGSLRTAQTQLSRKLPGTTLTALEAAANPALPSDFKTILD

IC50 [1] [nM]	Activity [2]	IC50 [3] [nM]	IC50 [4] [nM]	IC50 [5] [nM]	Structure (SMILES)
45	inactive	830			CN(C)c1ccc(Nc2c3ccc(NC(=O)CCN4CCCC4)cc3nc3cc(NC(=O)CCN4CCCC4)ccc23)cc1
	Active				C[n+]1cc(NC(=O)c2ccc3ccc4ccc(C(=O)Nc5cc6ccccc6[n+](C)c5)nc4c3n2)cc2ccccc21
	Active				C[n+]1cc(NC(=O)c2cccc(C(=O)Nc3cc4ccccc4[n+](C)c3)n2)cc2ccccc21

More lines, now with the values behind:

Structure (SMILES)	IC50 [1] [nM]	Activity [2]	IC50 [3] [nM]	IC50 [4] [nM]	IC50 [5] [nM]
C[n+]1ccc(-c2c3nc(c(-c4cc[n+](C)cc4)c4ccc([nH]4)c(-c4cc[n+](C)cc4)c4ccc([nH]4)c(-c4cc[n+](C)cc4)c4nc2C=C4)C=C3)cc1		inactive			
Cc1oc2nc1-c1nc(co1)-c1nc(co1)-c1nc(co1)-c1nc(co1)-c1nc(co1)C1=NC(CS1)c1nc-2c(C)o1 (stereo not drawn) [TELOMESTATIN]	0.64	inactive	900	1150	58
C[n+]1ccc(-c2c3nc(c(-c4cc[n+](C)cc4)c4ccc([nH]4)c(-c4cc[n+](C)cc4)c4nc(c(-c5cc[n+](C)cc5)c5ccc2[nH]5)C=C4)C=C3)cc1 [TMPYP4]	550		710		
